From patent publication US20030013883A1, “Tropane analogs binding to monoamine transporters” (priority 2000, published 2003)
Where two headings read alike, the source gives them in different places.

How the values were obtained:
[1] = target: T1, norepinephrine transporter (NET) (Rattus norvegicus, UniProt Q63380); test: Radioligand binding to norepinephrine transporter, [3H]nisoxetine, rat cerebral cortex homogenate
T1 construct: from tissue; host or cells: rat cerebral cortex
Description: (§1) 30: 89-92, 1990; Andersen, P. H., J. Neurochem. 48:1887-1896, 1987).

[2] = target: dopamine transporter (DAT) (Rattus norvegicus, UniProt P23977); test: Radioligand binding to dopamine transporter, [3H]GBR-12935, rat corpus striatum homogenate;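 note: displacement read as filter-bound tritium by liquid scintillation counting, roughly 1 mg wet tissue per tube, IC50 from fitted concentration-inhibition curves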
Description: For DAT assays, corpus striatum tissue from rat forebrain was rapidly dissected on ice, pooled, weighed, and homogenized at 30 mg/mL in cold DAT buffer (50 mM Tris citrate, pH 7.4, 120 mM NaCl, 4 mM MgCl2) and stored at −70° C. The pellet was suspended in the assay buffer to provide the equivalent of about 1 mg of wet weight per assay tube.
L=400 pM) and 1.0 μM GBR-12909 (Research Biochemicals International, Natick, Mass.) as blank (Kula, N. S. et al., Neuropharmacology.
Assay tubes were incubated at room temperature for 120 min (SERT) or on ice for 180 min (NET) or 45 min (DAT). Labeled tissue samples were recovered in a Brandel Cell Harvester on glass fiber filter sheets saturated with 0.3% (v/v) aqueous polyethyleneimine, washed with ice-cold 0.9% NaCl, and counted for tritium in a liquid scintillation counter. Concentration-inhibition curves were computer-fit to determine IC50±SEM and converted to Ki values in nM from the Cheng -Prusoff relationship Ki=IC50/(1+[L]/Kd).

[3] = target: T2, serotonin transporter (SERT) (Rattus norvegicus, UniProt P31652); test: Radioligand binding to serotonin transporter, [3H]paroxetine, rat cerebral cortex homogenate; conditions: for Selectivity for SERT: ratio of Ki for NET or DAT to that for SERT (values match DAT/SERT), larger number is more selective for SERT
T2 construct: For SERT and NET assays, rat cerebral cortex was homogenized in cold SERT assay buffer; from tissue; host or cells: rat cerebral cortex
Description: as §1

[4] = rat cerebral cortex membranes, [3H]nisoxetine 600 pM, on ice 180 min, Ki from IC50 by Cheng-Prusoff, read-out: NET (Ki)
[5] = read-out: DAT (Ki), rat corpus striatum membranes, [3H]GBR-12935 400 pM, on ice 45 min, Ki from IC50 by Cheng-Prusoff
[6] = rat cerebral cortex membranes, [3H]paroxetine 200 pM, room temperature 120 min, Ki from IC50 by Cheng-Prusoff, read-out: SERT (Ki)

Sequence of dopamine transporter (DAT) (P23977 whole entry): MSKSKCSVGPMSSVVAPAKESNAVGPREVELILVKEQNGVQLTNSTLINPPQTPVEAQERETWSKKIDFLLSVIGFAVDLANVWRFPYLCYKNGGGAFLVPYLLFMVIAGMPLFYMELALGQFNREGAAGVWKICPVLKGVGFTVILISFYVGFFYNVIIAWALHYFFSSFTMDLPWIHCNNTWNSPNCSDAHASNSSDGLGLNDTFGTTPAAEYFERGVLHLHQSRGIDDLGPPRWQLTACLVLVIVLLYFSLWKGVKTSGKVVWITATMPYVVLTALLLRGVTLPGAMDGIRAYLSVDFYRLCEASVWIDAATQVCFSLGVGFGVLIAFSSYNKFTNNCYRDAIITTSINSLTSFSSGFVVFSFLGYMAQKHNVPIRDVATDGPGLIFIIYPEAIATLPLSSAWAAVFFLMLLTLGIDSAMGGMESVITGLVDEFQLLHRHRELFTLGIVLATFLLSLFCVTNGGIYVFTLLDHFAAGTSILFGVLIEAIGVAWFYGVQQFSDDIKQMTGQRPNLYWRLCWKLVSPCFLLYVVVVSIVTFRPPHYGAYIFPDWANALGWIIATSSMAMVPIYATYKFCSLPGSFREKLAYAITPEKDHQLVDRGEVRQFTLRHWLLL
T1 sequence (Q63380 1-617): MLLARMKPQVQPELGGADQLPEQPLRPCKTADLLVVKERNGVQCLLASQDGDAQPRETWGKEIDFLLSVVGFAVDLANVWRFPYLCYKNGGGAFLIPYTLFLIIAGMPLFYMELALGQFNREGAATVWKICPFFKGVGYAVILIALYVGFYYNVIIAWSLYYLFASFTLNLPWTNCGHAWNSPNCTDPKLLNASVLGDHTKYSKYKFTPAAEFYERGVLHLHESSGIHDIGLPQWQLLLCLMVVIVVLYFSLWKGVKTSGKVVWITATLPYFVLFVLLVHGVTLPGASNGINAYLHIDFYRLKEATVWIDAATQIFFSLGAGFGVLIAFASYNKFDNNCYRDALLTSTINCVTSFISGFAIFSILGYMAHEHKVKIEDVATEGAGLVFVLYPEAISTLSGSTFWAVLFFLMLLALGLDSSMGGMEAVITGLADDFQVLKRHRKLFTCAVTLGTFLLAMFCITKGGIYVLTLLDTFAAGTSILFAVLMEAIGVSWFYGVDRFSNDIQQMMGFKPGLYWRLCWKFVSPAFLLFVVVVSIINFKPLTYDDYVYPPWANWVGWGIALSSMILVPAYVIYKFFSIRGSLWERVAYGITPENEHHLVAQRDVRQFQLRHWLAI
T2 sequence (P31652 whole entry): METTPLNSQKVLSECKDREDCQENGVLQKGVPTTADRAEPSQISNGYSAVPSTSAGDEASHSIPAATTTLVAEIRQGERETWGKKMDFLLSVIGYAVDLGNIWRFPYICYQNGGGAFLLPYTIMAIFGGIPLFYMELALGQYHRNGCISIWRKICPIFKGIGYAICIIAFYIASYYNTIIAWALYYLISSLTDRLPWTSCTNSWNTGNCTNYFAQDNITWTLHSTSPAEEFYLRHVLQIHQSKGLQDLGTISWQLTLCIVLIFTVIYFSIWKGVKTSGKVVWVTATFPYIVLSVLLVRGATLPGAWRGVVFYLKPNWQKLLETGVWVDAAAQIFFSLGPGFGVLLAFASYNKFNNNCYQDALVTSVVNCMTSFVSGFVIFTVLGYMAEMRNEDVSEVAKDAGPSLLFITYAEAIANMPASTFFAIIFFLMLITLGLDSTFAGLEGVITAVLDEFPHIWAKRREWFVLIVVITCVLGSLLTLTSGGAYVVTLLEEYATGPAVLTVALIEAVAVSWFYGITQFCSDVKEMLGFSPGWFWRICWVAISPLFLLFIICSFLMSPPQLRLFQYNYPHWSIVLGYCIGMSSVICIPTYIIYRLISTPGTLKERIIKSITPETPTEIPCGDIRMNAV

SMILES	Ki [1, 4] [µM]	Ki [2, 5] [µM]	Ki [3, 6] [µM]	Selectivity for SERT [3]	Ki ([3]; read-out: SERT (Ki)) [µM]	Ki [2] [µM]	melting point [°C]	Ki [1] [µM]	Ki [3] [µM]
COC(=O)C1C(c2ccc(-c3cccc(O)c3)cc2)CC2CCC1N2C (centres unmarked) [Compound 2]	0.155	0.0152							
COC(=O)C1C(c2ccc(-c3ccccc3OC)cc2)CC2CCC1N2C (centres unmarked) [Compound 3a]	> 10	0.357							
COC(=O)C1C(c2ccc(-c3cccc(OC)c3)cc2)CC2CCC1N2C (centres unmarked) [Compound 3b]	> 3	0.0587	0.00189	31.1					
COC(=O)C1C(c2ccc(-c3ccc(OC)cc3)cc2)CC2CCC1N2C (centres unmarked) [Compound 3c]	0.352	0.0132	0.032	0.41					
COC(=O)C1C(c2ccc(-c3ccccc3[N+](=O)[O-])cc2)CC2CCC1N2C (centres unmarked) [Compound 4a]	> 3			1					
COC(=O)C1C(c2ccc(-c3cccc([N+](=O)[O-])c3)cc2)CC2CCC1N2C (centres unmarked) [Compound 4b]	0.963	0.00954	0.0008	11.9					
COC(=O)C1C(c2ccc(-c3ccc([N+](=O)[O-])cc3)cc2)CC2CCC1N2C (centres unmarked) [Compound 4c]	0.37	0.0051	0.0297	0.17					
COC(=O)C1C(c2ccc(-c3cccc(N)c3)cc2)CC2CCC1N2C (centres unmarked) [Compound 5]	0.661	0.0242							
COC(=O)C1C(c2ccc(-c3ccccc3C(C)=O)cc2)CC2CCC1N2C (centres unmarked) [Compound 6a]	> 20	1.02							
COC(=O)C1C(c2ccc(-c3cccc(C(C)=O)c3)cc2)CC2CCC1N2C (centres unmarked) [Compound 6b]	> 50	0.0124							
COC(=O)C1C(c2ccc(-c3ccc(C(C)=O)cc3)cc2)CC2CCC1N2C (centres unmarked) [Compound 6c]	0.754	0.0191							
COC(=O)[C@H]1[C@@H](c2ccc(-c3cccc(CNC(=O)OC(C)(C)C)c3)cc2)C[C@@H]2CC[C@H]1N2C [Compound 7, 3β-[3′-(tert-Butoxycarbonylaminomethyl)biphenyl-4-yl]-Tropane-2β-carboxylic acid methyl ester]	> 30			1	> 10	> 10			
COC(=O)C1C(c2ccc(-c3cccc(C(=O)c4ccccc4)c3)cc2)CC2CCC1N2C (centres unmarked) [Compound 8]	> 3			1	> 3	> 3			
COC(=O)C1C(c2ccc(-c3cccc(C4OCCO4)c3)cc2)CC2CCC1N2C (centres unmarked) [Compound 9]	> 30			0.03	> 10	0.363			
COC(=O)C1C2CCC(CC1c1ccc(-c3cccc(OC)c3)cc1)N2 (stereo not drawn) [Compound 10, 3β-(3′-methoxybiphenyl-4-yl)nortropane-2β-carboxylic acid methyl ester]	0.295			306	0.00232	0.71	102 to 104		
COC(=O)[C@H]1[C@@H](c2ccc(-c3cccs3)cc2)C[C@@H]2CC[C@H]1N2C [Compound 11, 3β-(4-Thiophen-2-yl-phenyl)tropane-2β-carboxylic acid methyl ester]				346		0.052		0.158	0.00015
COC(=O)[C@H]1[C@@H](c2ccc(-c3ccsc3)cc2)C[C@@H]2CC[C@H]1N2C [Compound 12, 3β-(4-Thiophen-3-yl-phenyl)tropane-2β-carboxylic acid methyl ester]				711		0.0121		0.189	0.00017
COC(=O)C1C(c2ccc(-c3ccco3)cc2)CC2CCC1N2C (centres unmarked) [Compound 13]		0.00714	0.00113	6.32				1.4	
COC(=O)[C@H]1[C@@H](c2ccc(-c3nccs3)cc2)C[C@@H]2CC[C@H]1N2C [Compound 14, 3β-(4-Thiazol-2-yl-phenyl)tropane-2β-carboxylic acid methyl ester]				310		0.52		> 10	0.00167
COC(=O)C1C(c2ccc(-c3ccccn3)cc2)CC2CCC1N2C (centres unmarked) [Compound 15]	≥ 10	0.044	0.161	0.27					
COC(=O)C1C(c2ccc(-c3cccnc3)cc2)CC2CCC1N2C (centres unmarked) [Compound 16]	1.41		0.00354	7.3		0.0265			
COC(=O)C1C2CCC(CC1c1ccc(-c3cncc(OC)c3)cc1)N2 (stereo not drawn) [Compound 18, 3β-[4-(5′-Methoxypyridin-3-yl)-phenyl]nortropane-2β-Carboxylic Acid Methyl Ester]	1.59			150	0.00391	0.587			
COC(=O)C1C(c2ccc(-c3cncnc3)cc2)CC2CCC1N2C (centres unmarked) [Compound 19]	> 10	0.344	0.0331	10.4					
COC(=O)C1C(c2ccc(-c3cnc4ccccc4c3)cc2)CC2CCC1N2C (centres unmarked) [Compound 20]	> 3	0.0598	0.02	3.0					
COC(=O)C1C(c2ccc(-c3cncc4ccccc34)cc2)CC2CCC1N2C (centres unmarked) [Compound 21]	> 10			10		> 30			
